According to article PMC9180621, “Preparation of Novel Pyrazolo[4,3-e]tetrazolo[1,5-b][1,2,4]triazine Sulfonamides and Their Experimental and Computational Biological Studies” (International Journal of Molecular Sciences, 2022):

Legend:
BxPC-3 cells [1] = assay: Annexin V-FITC/propidium iodide flow cytometry, apoptosis; type: cell-based, human; conditions: IC50 concentration, Annexin V-FITC, ± SD
Method: (§1) Data are presented as mean percentage of apoptotic cells (early and late apoptotic) ± SD values. The differences between the experimental samples and vehicle control were evaluated by the ANOVA test followed by Tukey’s test (p < 0.05). Experiments were performed in triplicate. For flow cytometry analysis with Annexin V-FITC staining, the approximate number of analyzed cells was (N = 1 × 10^4), contrasting with the dual acridine orange/ethidium bromide (AO/EB) fluorescent staining (N = 200).
(§2) The Annexin V-FITC Apoptosis Detection Kit was used to estimate the apoptosis induction following 24 and 48 h incubation with the tested MM-compounds. During apoptosis, phosphatidylserine is transformed from the inner cell membrane to the cell surface, which can be detected by the annexin-FITC complex. The addition of propidium iodide to the reaction mixture allows the assessment of cell membrane integrity. Using flow cytometry analysis, four subpopulations of cells can be distinguished: alive (non-stained), necrotic (propidium iodide stained), early apoptotic (annexin V stained cells), or late-apoptotic cells (propidium iodide and annexin V stained). BxPC-3 and PC-3 cells were seeded at appropriate density on a 6-well plate (Table 9).
(§3) The experimental design included vehicle control (final solvent concentration was < 0.5% v/v DMSO), and cells treated with 2 µM SN-38 (active metabolite of irinotecan) used as a positive compensation control. Cells were left for incubation for another 24 or 48 h (37 °C; 5% CO2). After exposure, cells were trypsinized and transferred to cytometric tubes, left for 40 min, and centrifuged at 1400 rpm for 10 min at 4 °C. Afterward, the supernatant was removed, and the precipitate was diluted in 1 mL of PBS. The rest of the procedure was performed according to the manufacturer’s instructions. The results were obtained from three independent experiments.

PC-3 cells [2] = assay: as above; type: cell-based, human; conditions: PC-3, 48 h incubation, Annexin V-FITC, ± SD, control 8.37 ± 1.06%
Method: as §1, §2, §3

PC-3 cells [3] = assay: MTT assay, cell viability; type: cell-based, human; conditions: for IC50: Homo sapiens, PC-3, 72 h incubation, MTT, ± SD
Method: (§4) A statistical program (Graphpad Prism 7) was used to analyze obtained data (MTT test). The dose–response analysis was performed to estimate the inhibitory concentration (IC50) of the tested compounds. The IC50 value is defined as a concentration of the tested compound that leads to a reduction in cell pool viability by 50% compared to the negative control (accepted as 100%). % cell viability=Absorbance value of treated cells−Absorbance value of blank/Absorbance value of untreated cells−Absorbance value of blank×100%
(§5) To estimate cell viability following 72 h incubation with the tested MM-compounds (MM134, MM136, MM137, and MM139), the MTT test was used according to the PN-EN ISO 10993-5. It is a quantitative method based on the tetrazolium yellow dye MTT [3(4,5-dimethyl-2-thiazolyl)-2,5-diphenyl-2H-tetrazolium bromide], which is converted by living cells to a purple product, formazan, the concentration of which was measured colorimetrically. The MTT assay was performed according to the procedure described by Mosmann with modifications. At a density of approximately 8 × 10^3 cells per 100 µL/well, 96-well plates were seeded. Following the given incubation period in controlled conditions (37 °C; 5% CO2), cells were exposed to different concentrations of tested compounds in DMSO (range 0.05–3 µM) in a volume of 100 µL medium per well. Final solvent concentration of DMSO was < 0.5% v/v. The experimental design included vehicle controls and blanks (wells without cells).
(§6) After 72 h of incubation of cells with tested MM-compounds, 20 µL of MTT tetrazolium salt (5 mg/mL in PBS) was added to each well, and plates were incubated once again in a humidified atmosphere for 3 h (37 °C; 5% CO2). Following the incubation time, the solutions were removed and 100 µL of DMSO was added to dissolve the formazan complexes. Subsequently, a spectrophotometer (microplate reader Power Wave XS BioTek Instruments, Inc., Winooski, VT, USA) reading was performed at 570 nm. The experiments were performed in duplicates.

L929 cells = assay: MTT assay, cell viability; type: cell-based; conditions: L929 normal mouse fibroblasts, 72 h incubation, ± SD
Method: as §4, §5, §6

WI-38 cells = assay: MTT assay, cell viability; type: cell-based; conditions: WI-38 normal human fibroblasts, 72 h incubation, ± SD
Method: as §4, §5, §6

BxPC-3 cells [4] = assay: MTT assay, cell viability; type: cell-based; conditions: Homo sapiens, BxPC-3, 72 h incubation, ± SD
Method: as §4, §5, §6

BxPC-3 cells [5] = assay: Dual acridine orange/ethidium bromide (AO/EB) fluorescent staining, apoptosis; type: cell-based, human; conditions: for increase in the apoptotic cell fraction: BxPC-3, both tested concentrations (IC50, 2xIC50), 24 and 48 h incubation
Method: (§7) Data are presented as mean percentage of apoptotic cells (early and late apoptotic) ± SD values. The differences between the experimental samples and vehicle control were evaluated by the ANOVA test followed by Tukey’s test (p < 0.05). Experiments were performed in triplicate. For flow cytometry analysis with Annexin V-FITC staining, the approximate number of analyzed cells was (N = 1 × 10^4), contrasting with the dual acridine orange/ethidium bromide (AO/EB) fluorescent staining (N = 200). Acridine orange/ethidium bromide (AO/EB) staining is used to detect nuclear alterations and the development of apoptotic bodies, which are both indicative of apoptosis. Acridine orange penetrates into living cells, emitting green fluorescence after intercalation into DNA. The second dye, ethidium bromide, emits red fluorescence in cells with an altered cell membrane. The cells are divided into three categories as follows: living cells (green nucleus with red orange cytoplasm); apoptotic (green irregularly nuclei with chromatin condensation or fragmentation); and necrotic cells (uniformly orange-stained cell nuclei). Programmed cell death is measured by counting the number of cells that undergo apoptosis under a fluorescent microscope. BxPC-3 and PC-3 cells were seeded at an appropriate density on 12-well plates (Table 9). […] Following the incubation period, cells were incubated with fluorochromes (AO/EB: 100 µM; 1:1, v/v) for 5 min at 37 °C in the dark. Viable, apoptotic, or necrotic cells were distinguished using this method based on differential uptake of fluorescent DNA-binding dyes (AO/EB) with the structural aspect of chromatin condensation in the stained nucleus. Cells were analyzed using a fluorescence microscope (Olympus BX60 F5 Olympus Optical Co., Ltd., Nagano, Japan) at 360 nm. The results were obtained from three independent experiments.

PC-3 cells [6] = assay: as above; type: cell-based, human; conditions: PC-3, 48 h incubation, control 1.5 ± 0.7%; for mean % of apoptotic cells: AO/EB, ± SD; for % of apoptotic cells, both tested concentrations: IC50 and 2xIC50, AO/EB
Method: as §7

[7] = BxPC-3, 24 h incubation, control 10.3 ± 2.09%
[8] = BxPC-3, 48 h incubation, control 8.3 ± 1.13%

| SMILES | mean percentage of apoptotic cells (early and late apoptotic) (BxPC-3 cells [1]; [7]) [%] | mean percentage of apoptotic cells (early and late apoptotic) (BxPC-3 cells [1]; [8]) [%] | mean percentage of apoptotic cells (early and late apoptotic) (PC-3 cells [2]; 2xIC50 concentration) [%] | IC50 (PC-3 cells [3]) [nM] | times higher cytotoxic activity in PC-3 compared to normal human fibroblasts (WI-38) (PC-3 cells [3]; ratio of MTT IC50, PC-3 vs WI-38) [times] | IC50 (L929 cells) [nM] | IC50 (WI-38 cells) [nM] | IC50 (BxPC-3 cells [4]) [nM] | increase in the apoptotic cell fraction (BxPC-3 cells [5]) | mean % of apoptotic cells (PC-3 cells [6]; 2xIC50 concentration) [%] | mean % of apoptotic cells (PC-3 cells [6]; IC50 concentration) [%] | mean percentage of apoptotic cells (early and late apoptotic) (PC-3 cells [2]; IC50 concentration) [%] | increase in apoptotic fraction (BxPC-3 cells [5]; BxPC-3, IC50 concentration, 24 h incubation) | % of apoptotic cells, both tested concentrations (PC-3 cells [6]) |
| --- | --- | --- | --- | --- | --- | --- | --- | --- | --- | --- | --- | --- | --- | --- |
| Cc1nn(-c2ccc(S(=O)(=O)NCCN3CCOCC3)cc2)c2nn3nnnc3nc12 [MM134] | 65.3 ± 9.1 | 86.9 ± 1.16 | 20.37 ± 2.5 | 160 ± 20 | 4 | 580 ± 5 | 650 ± 70 | 320 ± 100 | statistically significant increase | 11 ± 1.41 | 8.5 ± 0.7 |  |  |  |
| Cc1nn(-c2ccc(S(=O)(=O)N3CCN(C)CC3)cc2)c2nn3nnnc3nc12 [MM137] | 18.9 ± 2.95 | 40.8 ± 1.36 | 38.93 ± 4 | 110 ± 7 |  | 180 ± 0.8 | 270 ± 40 | 160 ± 40 |  | 24 ± 1.41 | 15 ± 2.82 | 22.57 ± 3.18 | did not induce a significant increase | statistically significant increase |
| Cc1nn(-c2ccc(S(=O)(=O)N3CCCCC3)cc2)c2nn3nnnc3nc12 [MM139] | 59.6 ± 7.42 | 85.4 ± 6.25 | 15 ± 2.42 | 170 ± 3 |  | 260 ± 20 | 540 ± 60 | 330 ± 140 | statistically significant increase | 12.5 ± 0.7 | 13.5 ± 3.53 |  |  | statistically significant increase |
